Patent US5270322A, “Imidazo[1,2-a]pyridines, pharmaceutical compositions containing these compounds and processes for preparing them” (Dr. Karl Thomae GmbH, priority 1992, dated 1993)

Target: T1, Angiotensin II-Receptor (Rattus norvegicus, UniProt P25095)
T1 construct: The tissue (rats lung) is homogenised in Tris-buffer; from tissue; host or cells: rat lung homogenate
T1 sequence (P25095 1-359): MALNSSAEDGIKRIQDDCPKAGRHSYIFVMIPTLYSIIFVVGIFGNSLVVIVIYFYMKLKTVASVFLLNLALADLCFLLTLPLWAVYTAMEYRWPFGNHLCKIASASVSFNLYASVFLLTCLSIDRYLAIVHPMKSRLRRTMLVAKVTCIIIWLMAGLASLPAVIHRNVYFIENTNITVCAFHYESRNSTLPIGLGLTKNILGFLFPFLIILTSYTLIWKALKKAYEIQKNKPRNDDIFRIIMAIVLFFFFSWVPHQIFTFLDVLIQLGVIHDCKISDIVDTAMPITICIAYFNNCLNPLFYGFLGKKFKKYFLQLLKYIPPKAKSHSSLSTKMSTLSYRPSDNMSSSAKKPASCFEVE
Experiment: Angiotensin II-Receptor Bonding
Assay type: binding
Settings: rats lung homogenate; 50 pM [125I]-angiotensin II; 60 minutes at 37° C.; pH 7.40
Experimental: Description of Method: Angiotensin II-Receptor Bonding
The tissue (rats lung) is homogenised in Tris-buffer (50 mMol Tris, 150 mMol NaCl, 5 mMol EDTA, pH 7.40) and centrifuged twice for 20 minutes at 20,000×g. The finished pellets are resuspended in incubating buffer [, (50 mMol Tris, 5 mMol MgC12, 0.2% BSA, pH 7.40) 1:75, based on the moist weight of the tissue. Each 0.1 ml of homogenate is incubated for 60 minutes at 37° C. with 50 pM [^125 I]-angiotensin II (NEN, Dreieich, FRG) with increasing concentrations of the test substance in a total volume of 0.25 ml. Incubation is ended by rapid filtration through glass fibre filter mats. The filters are each washed with 4 ml of ice cold buffer (25 mMol Tris, 2.5 mMol MgCl2, 0.1% BSA, pH 7.40). The bound radioactivity is measured using a gamma-counter. The corresponding IC50 value is obtained from the dose-activity curve.

Row | IC50 | SMILES
1 | 46 nM | CCc1cn2c(C(O)c3ccc(-c4ccccc4C(=O)O)cc3)ccc(C)c2n1 (racemic) [Substance A, (R,S)-2-ethyl-8-methyl-5-[α-(2'-carboxybiphenyl-4-yl)-α-hydroxy-methyl]imidazo[1,2-a]pyridine]
2 | 230 nM | CCc1cn2c(C(OC(=O)NC3CCCCC3)c3ccc(-c4ccccc4C(=O)O)cc3)ccc(C)c2n1 (racemic) [Substance C, (R,S)-2-Ethyl-8-methyl-5-[α-(2'-carboxybiphenyl-4-yl)-α-cyclohexylaminocarbonyloxy-methyl]imidazo[1,2-a]pyridine]
3 | 420 nM | CCCc1cn2c(C(O)c3ccc(-c4ccccc4C(=O)O)cc3)ccc(C)c2n1 (racemic) [Substance D, (R,S)-2-n-Propyl-8-methyl-5-[α-(2'-carboxybiphenyl-4-yl)-α-hydroxy-methyl]imidazo[1,2-a]pyridine-hydrate]

Row | SMILES | IC50
4 | CCc1cn2c(C(OC(C)=O)c3ccc(-c4ccccc4C(=O)O)cc3)ccc(C)c2n1 (racemic) [Substance B, (R,S)-2-ethyl-8-methyl-5-[α-(2'-carboxybiphenyl-4-yl)-α-acetoxy-methyl]imidazo[1,2-a]pyridine] | 30 nM
